Converted amounts (≈) assume the structure as drawn. Read-outs that look alike come from different tables or passages of the source.
Experiments:
[1] = tested on: S. aureus A-9606 (Pen-res.); assay: In vitro MIC, tube dilution; type: cell-based; settings: Staphylococcus aureus, Nutrient Broth, overnight incubation at 37° C., additional data table, read-out: MIC S. aureus (Pen-res.) A-9606
E. coli A20341-1 = assay: In vitro MIC, tube dilution; type: cell-based; settings: Escherichia coli, A203411, tube dilution, Nutrient Broth, overnight incubation at 37° C.; additional data table
E. cloacae A-9656 = assay: In vitro MIC, tube dilution; type: cell-based; settings: Enterobacter cloacae, A9656, tube dilution, Nutrient Broth, overnight incubation at 37° C.; additional data table
E. cloacae A-9659 = assay: In vitro MIC, tube dilution; type: cell-based; settings: Enterobacter cloacae, A9659, tube dilution, Nutrient Broth, overnight incubation at 37° C.; additional data table
Description: N-formimidoyl thienamycin was included as a comparison compound.

S. faecalis A20688 = assay: In vitro MIC, tube dilution; type: cell-based; settings: Enterococcus faecalis, A20688, tube dilution, Nutrient Broth, overnight incubation at 37° C.; additional data table
S. pneumoniae A-9585 = assay: In vitro MIC, tube dilution; type: cell-based; settings: Streptococcus pneumoniae, A9585, Nutrient Broth, overnight incubation at 37° C., additional data table
P. morganii A15153 = assay: In vitro MIC, tube dilution; type: cell-based; settings: Morganella morganii, A15153, tube dilution, Nutrient Broth, overnight incubation at 37° C.; additional data table; read-out: MIC M. morganii A15153
S. aureus A-9537 = assay: In vitro MIC, tube dilution; type: cell-based; settings: Staphylococcus aureus, overnight incubation at 37° C., additional data table
P. aeruginosa A-9843A [2] = assay: In vitro MIC, tube dilution; type: cell-based; settings: Pseudomonas aeruginosa, A9843A, Nutrient Broth, overnight incubation at 37° C., additional data table
S. marcescens A20019 = assay: In vitro MIC, tube dilution; type: cell-based; settings: Serratia marcescens, A20019, tube dilution, Nutrient Broth, overnight incubation at 37° C.; additional data table
P. vulgaris A21559 = assay: In vitro MIC, tube dilution; type: cell-based; settings: Proteus vulgaris, A21559, tube dilution, Nutrient Broth, overnight incubation at 37° C.; additional data table
K. pneumoniae A20468 = assay: In vitro MIC, tube dilution; type: cell-based; settings: Klebsiella pneumoniae, A20468, tube dilution, Nutrient Broth, overnight incubation at 37° C.; additional data table
K. pneumoniae A-9664 = assay: In vitro MIC, tube dilution; type: cell-based; settings: Klebsiella pneumoniae, A9664, tube dilution, Nutrient Broth, overnight incubation at 37° C.; additional data table
P. rettgeri A22424 = assay: In vitro MIC, tube dilution; type: cell-based; settings: Providencia rettgeri, A22424, tube dilution, Nutrient Broth, overnight incubation at 37° C.; additional data table
P. mirabilis A-9900 = assay: In vitro MIC, tube dilution; type: cell-based; settings: Proteus mirabilis, A9900, tube dilution, Nutrient Broth, overnight incubation at 37° C.; additional data table
E. coli A15119 = assay: In vitro MIC, tube dilution; type: cell-based; settings: Escherichia coli, A15119, tube dilution, Nutrient Broth, overnight incubation at 37° C.; additional data table
[3] = Urinary recovery after intramuscular administration to mice; type: in vivo; settings: mouse, urine, im, 20 mg/kg, intramuscular dose of 20 mg/kg, 0-6 hour collection, read-out: Urine Recovery
Description: Compounds were solubilized in 0.1 M phosphate buffer pH 7. Values are from a single test; 4 mice per compound.
(§1) Also shown is the urinary recovery in the mice.
***Recovery based on 0-6 hour collection

P. aeruginosa A-9843a [4] = assay: Protective effect in the intramuscular treatment of infected mice (PD50); type: in vivo; settings: Pseudomonas aeruginosa, A9843A, im, read-out: PD50/treatment, P. aeruginosa A9843A
Description: The PD50 (dose in mg/kg required to give protection to 50% of the infected mice) is indicated.
Treatment Schedule: Mice were treated i.m. with drugs 0 and 2 hours post-infection; 5 mice per dose were used for each test
*For compound of Ex. 2, mice were infected i.p. with 2 × 10^9
compounds of Ex. 4 and 5, mice were infected i.p. with ~9 ×
were treated i.m. with drugs 0 and 2 h postinfection.

S. pyogenes A-9604 = assay: In vitro MIC, tube dilution; type: cell-based; settings: Streptococcus pyogenes, A9604, tube dilution, Nutrient Broth, overnight incubation at 37° C.; additional data table
[5] = Blood levels in mice after intramuscular administration; type: in vivo; settings: mouse, blood, im, 20 mg/kg, intramuscular dose of 20 mg/kg
Description: Compounds were solubilized in 0.1 M phosphate buffer pH 7. Values are fro
a single test; 4 mice used per compound.
*t1/2 refers to halflife in minutes
**AUC refers to the area under the blood concentrationtime curve
as §1
Compounds were solubilized in 0.1 M phosphate buffer, pH 7.
Values based on a single test; 4 mice per compound.
*T1/2 refers to halflife in minutes

With `C[C@@H](O)[C@H]1C(=O)N2C(C(=O)[O-])=C(SCC[N+]3(C)CCN(C)CC3)C[C@H]12` [Example 4, (5R,6S)3-[2-(1,4-dimethyl-1-piperazinium)-ethylthio]-6-[1-(R)-hydroxyethyl]-7-oxo-1-azabicyclo-[3.2.0]hept-2-ene-2-carboxylate] the MIC [1] was 0.06 µg/mL (≈ 0.162 µM), the MIC (E. coli A20341-1) was 0.13 µg/mL (≈ 0.352 µM) and the MIC (E. cloacae A-9656) was 2 µg/mL (≈ 5.41 µM). The MIC (E. cloacae A-9659) was 1 µg/mL (≈ 2.71 µM), the MIC (S. faecalis A20688) was 2 µg/mL (≈ 5.41 µM) and the MIC (S. pneumoniae A-9585) was 0.004 µg/mL (≈ 0.0108 µM). The MIC (P. morganii A15153) was 1 µg/mL (≈ 2.71 µM), the MIC (S. aureus A-9537; A9537, 50% serum, tube dilution, read-out: MIC S. aureus-50% serum A-9537) was 0.06 µg/mL (≈ 0.162 µM) and the MIC (S. aureus A-9537; A9537, tube dilution, Nutrient Broth, read-out: MIC S. aureus A-9537) was 0.03 µg/mL (≈ 0.0812 µM). It also gave an MIC (P. aeruginosa A-9843A [2]) of 16 µg/mL (≈ 43.3 µM), an MIC (S. marcescens A20019) of 0.25 µg/mL (≈ 0.677 µM) and an MIC (P. vulgaris A21559) of 0.25 µg/mL (≈ 0.677 µM). The MIC (K. pneumoniae A20468) was 0.5 µg/mL (≈ 1.35 µM), the MIC (K. pneumoniae A-9664) was 0.25 µg/mL (≈ 0.677 µM) and the MIC (P. rettgeri A22424) was 1 µg/mL (≈ 2.71 µM). For the same compound, the MIC (P. mirabilis A-9900) was 0.25 µg/mL (≈ 0.677 µM), the MIC (E. coli A15119) was 0.13 µg/mL (≈ 0.352 µM) and the dose excreted at 6 h [3] was 33 ± 11%. The ED50 (P. aeruginosa A-9843a [4]) was 2.7 mg/kg, the MIC (S. pyogenes A-9604) was 0.004 µg/mL (≈ 0.0108 µM) and the Cmax [5] was 17300 ng/mL. The AUC ([5]; read-out: Blood AUC) was 7600 ng·h/mL and the half-life ([5]; read-out: Blood T1/2) was 12 min.

Source: patent US4536335A, “Carbapenem antibiotics” (Bristol-Myers Company, priority 1983, dated 1985)
